Broadly, the Kd is the free concentration of one partner at which half of the binding sites on the other are occupied at equilibrium, for simple one-to-one binding.

Where “and” joins values, the source holds several entries; their conditions need not be identical. Equal entries are not always repeated.

Experiment [1] relates to voltage-gated Ca2+ channels (α1B, β1C subunits). The experiment can be described thus: Ca2+ channel currents in Xenopus oocytes injected with cRNA, two-electrode voltage clamp. Conditions: for increase in current compared to no α2δ subunits: co-injected with α1B and β1C in Xenopus oocytes. The experiment is classed as cell-based. As for the experimental part: Since α2δ-C has sequence homology to α2δ-A, and α2δ-A functions as a subunit of VSCCs, experiments were undertaken to determine if α2δ-C can replace α2δ-A and produce functional VSCCs. Xenopus oocytes were isolated using standard techniques and injected with cRNA for α1B, β1C and α2δ-C subunits of voltage-gated Ca^2+ channels. Four days to 1 week following injection of cRNA, Ca^2+ channel currents were measured using two-electrode voltage clamp with 5 mM Ba^2+ as the charge carrier. Test pulses to +10 mV from a holding membrane potential of −80 mV were applied to evoke Ca^2+ channel currents. Peak inward currents evoked during the test pulse were measured. The amplitude of inward currents is proportional to the expression level of voltage-gated Ca^2+ channels.
In general terms: In two-electrode clamp one electrode senses voltage and the other passes current.

For the next experiment, the target named is T1, Human α2δ-B (Homo sapiens, UniProt Q9NY47).
T1 construct: transiently transfected with the full-length porcine α2δ-A, and human α2δ-B genes; expressed in transfected cells; host or cells: COS-7 cells, pcDNA3.1 vector, lipofectamine; membranes
T1 sequence (Q9NY47 19-1145 isoform Q9NY47-3 limits assumed): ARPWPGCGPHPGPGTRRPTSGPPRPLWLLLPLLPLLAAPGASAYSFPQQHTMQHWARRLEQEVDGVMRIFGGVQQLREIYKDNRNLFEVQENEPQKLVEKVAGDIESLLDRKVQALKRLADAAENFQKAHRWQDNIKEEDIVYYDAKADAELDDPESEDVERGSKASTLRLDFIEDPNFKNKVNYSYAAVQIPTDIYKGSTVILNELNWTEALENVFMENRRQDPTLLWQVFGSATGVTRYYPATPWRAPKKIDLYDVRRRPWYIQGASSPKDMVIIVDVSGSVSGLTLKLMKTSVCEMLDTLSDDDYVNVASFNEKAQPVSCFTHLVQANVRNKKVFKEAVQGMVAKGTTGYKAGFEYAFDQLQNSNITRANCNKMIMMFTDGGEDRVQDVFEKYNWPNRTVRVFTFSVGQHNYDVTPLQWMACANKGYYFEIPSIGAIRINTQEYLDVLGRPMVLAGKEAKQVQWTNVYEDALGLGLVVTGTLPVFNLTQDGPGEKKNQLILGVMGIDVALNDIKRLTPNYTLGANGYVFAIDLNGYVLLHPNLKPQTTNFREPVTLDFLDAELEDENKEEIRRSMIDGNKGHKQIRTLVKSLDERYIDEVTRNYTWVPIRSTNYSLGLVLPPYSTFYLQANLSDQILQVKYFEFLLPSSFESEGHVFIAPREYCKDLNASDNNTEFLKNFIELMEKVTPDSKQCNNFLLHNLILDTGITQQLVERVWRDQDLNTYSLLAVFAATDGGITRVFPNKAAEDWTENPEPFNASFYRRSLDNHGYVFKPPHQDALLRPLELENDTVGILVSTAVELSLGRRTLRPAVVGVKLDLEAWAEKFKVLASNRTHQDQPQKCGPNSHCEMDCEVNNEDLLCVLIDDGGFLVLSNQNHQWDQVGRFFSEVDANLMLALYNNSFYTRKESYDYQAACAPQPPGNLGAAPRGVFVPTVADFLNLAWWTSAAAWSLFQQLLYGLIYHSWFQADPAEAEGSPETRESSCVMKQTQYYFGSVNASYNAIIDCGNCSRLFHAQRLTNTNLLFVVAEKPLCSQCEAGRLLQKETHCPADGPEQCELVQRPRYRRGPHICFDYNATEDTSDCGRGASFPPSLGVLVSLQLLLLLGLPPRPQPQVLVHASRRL
Put plainly: [3H]gabapentin saturation binding, membranes of transiently transfected COS-7 cells. An excerpt: […]. […] […].
The filters were then counted in a scintillation counter.

Consider “α2δA: known α2δ-A subunit of the voltage-sensitive calcium channel, comparator”, for which the “increase in current compared to no α2δ subunits” value in experiment [1] came out at 20 fold.

Regarding `NCC1(CC(=O)O)CCCCC1` [[3H]gabapentin, gabapentin], the Kd on Human α2δ-B (KD, single determinations (n = 2), 21° C., COS-7 membranes) was 32.6 nM and 87.2 nM; on Human α2δ-B (Mean KD, mean of n = 2) it was 59.9 nM. Also, the “binding of [3H]gabapentin (in words)” value on Human α2δ-B (full-length gene product expressed transiently in COS-7) is reported as “high affinity”.

B1: α2δC: novel human α2δ-C calcium channel subunit (SEQ ID NO 5), expressed from injected cRNA (protein, listed as Homo sapiens)
chain: MAGPGSPRRASRGASALLAAALLYAALGDVVRSEQQIPLSVVKLWASAFGGEIKSIAAKYSGSQLLQKKYKEYEKDVAIEEIDGLQLVKKLAKNMEEMFHKKSEAVRRLVEAAEEAHLKHEFDADLQYEYFNAVLINERDKDGNFLELGKEFILAPNDHFNNLPVNISLSDVQVPTNMYNKDPAIVNGVYWSESLNKVFVDNFDRDPSLIWQYFGSAKGFFRQYPGIKWEPDENGVIAFDCRNRKWYIQAATSPKDVVILVDVSGSMKGLRLTIAKQTVSSILDTLGDDDFFNIIAYNEELHYVEPCLNGTLVQADRTNKEHFREHLDKLFAKGIGMLDIALNEAFNILSDFNHTGQGSICSQAIMLITDGAVDTYDTIFAKYNWPDRKVRIFTYLIGREAAFADNLKWMACANKGFFTQISTLADVQENVMEYLHVLSRPKVIDQEHDVVWTEAYIDSTLTDDQGPVLMTTVAMPVFSKQNETRSKGILLGVVGTDVPVKELLKTIPKYKLGIHGYAFAITNNGYILTHPELRLLYEEGKKRRKPNYSSVDLSEVEWEDRDDVLRNAMVNRKTGKFSMEVKKTVDKGKRVLVMTNDYYYTDIKGTPFSLGVALSRGHGKYFFRGNVTIEEGLHDLEHPDVSLADEWSYCNTDLHPEHRHLSQLEAIKLYLKGKEPLLQCDKELIQEVLFDAVVSAPIEAYWTSLALNKSENSDKGVEVAFLGTRTGLSRINLFVGAEQLTNQDFLKAGDKENIFNADHFPLWYRRAAEQIPGSFVYSIPFSTGPVNKSNVVTASTSIQLLDERKSPVVAAVGIQMKLEFFQRKFWTASRQCASLDGKCSISCDDETVNCYLIDNNGFILVSEDYTQTGDFFGEIEGAVMNKLLTMGSFKRITLYDYQAMCRANKESSDGAHGLLDPYNAFLSAVKWIMTELVLFLVEFNLCSWWHSDMTAKAQKLKQTLEPCDTEYPAFVSERTIKETTGNIACEDCSKSFVIQQIPSSNLFMVVVDSSCLCESVAPITMAPIEIRYNESLKCERLKAQKIRRRPESCHGFHPEENARECGGAPSLQAQTVLLLLPLLLMLFSR
B1: in experiment [1], the “increase in current compared to no α2δ subunits” value amounted to 2 fold. In addition, in experiment [1] (co-injected with α1B and β1C, 5 mM Ba2+, test pulse to +10 mV from −80 mV, n=20, p<0.01 vs no α2δ), the “peak inward current amplitude” value was 213±12 nA.
